{
  "source": "patent US9463220B2",
  "about": "“Method for inducing twin calving” (China Agricultural University, priority 2013, dated 2016)",
  "origin": "cited, not measured here",
  "test_system": "cow",
  "conditions": "small doses of FSH with estrus synchronization 13 days before and aspiration of more than 3 large follicles on day 7",
  "data": [
    {"substance": "follicle-stimulating hormone [FSH]", "values": [
      {"measurement": "rate of 2-3 ovulations", "result": 90, "unit": "%"}
    ]}
  ]
}
